11 molecules from patent publication US4563527A, “Amidine compounds” (Torii & Co., Ltd., priority 1984, dated 1986) can be followed below.

The target in one test is T1, C1r (Homo sapiens, UniProt P00736).
T1 sequence (P00736 464-705 limits assumed): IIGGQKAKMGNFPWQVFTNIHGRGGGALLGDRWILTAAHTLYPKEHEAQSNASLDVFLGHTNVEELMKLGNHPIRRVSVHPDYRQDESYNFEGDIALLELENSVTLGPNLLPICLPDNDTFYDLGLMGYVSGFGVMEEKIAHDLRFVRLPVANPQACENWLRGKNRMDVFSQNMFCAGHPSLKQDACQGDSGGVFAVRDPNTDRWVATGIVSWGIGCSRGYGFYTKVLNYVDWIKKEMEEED
T1 sequence (P00736 18-463 partner limits assumed): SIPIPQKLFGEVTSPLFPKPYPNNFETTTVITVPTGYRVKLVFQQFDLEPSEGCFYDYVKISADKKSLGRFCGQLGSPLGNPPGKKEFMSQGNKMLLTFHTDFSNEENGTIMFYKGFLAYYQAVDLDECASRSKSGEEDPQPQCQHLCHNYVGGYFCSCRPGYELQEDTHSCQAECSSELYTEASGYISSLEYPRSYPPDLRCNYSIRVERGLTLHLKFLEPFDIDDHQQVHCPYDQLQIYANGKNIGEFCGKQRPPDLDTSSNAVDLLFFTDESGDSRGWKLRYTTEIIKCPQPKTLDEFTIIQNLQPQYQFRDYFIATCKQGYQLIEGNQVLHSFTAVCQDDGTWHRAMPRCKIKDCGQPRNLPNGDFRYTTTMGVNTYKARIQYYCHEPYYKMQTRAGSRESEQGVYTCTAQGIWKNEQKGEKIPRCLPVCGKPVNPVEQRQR
Briefly: biochemical. Particulars: molar concentration inhibiting 50% of AAME hydrolysis; read-out: ID50 C1r (Anti-C1 activity).

A further test concerns the target T2, C1s (Homo sapiens, UniProt P09871).
T2 sequence (P09871 438-688 limits assumed): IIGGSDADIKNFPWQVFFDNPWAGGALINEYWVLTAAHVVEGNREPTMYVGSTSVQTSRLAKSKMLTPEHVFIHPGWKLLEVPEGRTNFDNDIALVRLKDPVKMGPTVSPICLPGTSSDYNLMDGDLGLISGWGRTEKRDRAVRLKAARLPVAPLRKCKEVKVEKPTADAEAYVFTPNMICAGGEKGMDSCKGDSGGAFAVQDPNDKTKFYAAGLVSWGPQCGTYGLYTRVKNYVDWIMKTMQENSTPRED
T2 sequence (P09871 16-437 partner limits assumed): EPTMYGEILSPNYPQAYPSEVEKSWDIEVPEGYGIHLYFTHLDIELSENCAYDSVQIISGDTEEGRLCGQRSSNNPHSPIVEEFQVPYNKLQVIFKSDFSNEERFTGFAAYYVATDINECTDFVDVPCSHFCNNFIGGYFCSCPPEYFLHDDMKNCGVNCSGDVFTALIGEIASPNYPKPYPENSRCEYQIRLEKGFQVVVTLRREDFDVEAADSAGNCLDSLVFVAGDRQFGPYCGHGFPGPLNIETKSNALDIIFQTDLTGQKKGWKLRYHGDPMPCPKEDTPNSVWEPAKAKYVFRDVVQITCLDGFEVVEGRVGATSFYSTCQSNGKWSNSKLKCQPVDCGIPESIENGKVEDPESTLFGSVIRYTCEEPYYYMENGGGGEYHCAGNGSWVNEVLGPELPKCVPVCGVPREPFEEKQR
Briefly: Anti-C1s activity (hydrolysis of ATEE). Type of test: biochemical. Particulars: molar concentration inhibiting 50% of ATEE hydrolysis; read-out: ID50 C1s (Anti-C1 activity). Here is the method: The anti-C1 esterase (C1r, C1s) activity was determined according to the method of Okamura et al. [K. Okamura, M. Muramatsu and B. Fujii, Biochem. Biophys. Acta, 295, 252-257 (1973)]. The inhibition of complement mediated hemolysis was determined according to the method of Baker et al. [B. R. Baker and E. H. Erickson, J. Med. Chem. 12, 408-414 (1969)]. The figures in Table 2 have the following meanings:
C1s: Molar concentration of the test compound which inhibits 50% of the ability of C1s to hydrolyse ATEE (acetyltyrosin ethyl ester) (ID50).

For the next test, the target named is T3, Trypsin (Bos taurus, UniProt P00760).
T3 sequence (P00760 24-246): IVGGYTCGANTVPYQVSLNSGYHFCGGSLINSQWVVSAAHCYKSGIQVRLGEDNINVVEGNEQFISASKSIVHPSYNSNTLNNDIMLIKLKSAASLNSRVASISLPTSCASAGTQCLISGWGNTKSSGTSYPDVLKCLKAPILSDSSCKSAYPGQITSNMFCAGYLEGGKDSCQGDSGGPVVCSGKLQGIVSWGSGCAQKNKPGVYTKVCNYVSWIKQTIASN
In words: Anti-trypsin activity (hydrolysis of TAME). Type of test: biochemical. As to conditions: molar concentration inhibiting 50% of TAME hydrolysis; read-out: ID50 trypsin. How it is done:
(§1) The anti-trypsin, anti-plasmin, anti-kallikrein and anti-thrombin activities were determined according to the method of Muramatsu et al. [M. Muramatus, T. Onishi, S. Makino, Y. Hayashi and S. Fujii, J. of Biochem., 58, 214 (1965)]. The data summarized in Table 1 are expressed in terms of molar concentration (ID50) of the test compound which inhibits 50% of the activity of each enzyme to hydrolyze TAME (tosylalginine methyl ester). The compound No. corresponds to the compound number shown in Examples.

Another test concerns the target Thrombin (Homo sapiens, UniProt P00734). In words: biochemical. Particulars: molar concentration inhibiting 50% of TAME hydrolysis; read-out: ID50 thrombin.
The next test concerns the target Plasmin (Homo sapiens, UniProt P00747). Briefly: Anti-plasmin activity (hydrolysis of TAME). Type of test: biochemical. As to conditions: for IC50: molar concentration inhibiting 50% of TAME hydrolysis, read-out: ID50 plasmin. How it is done: The anti-trypsin, anti-plasmin, anti-kallikrein and anti-thrombin activities were determined according to the method of Muramatsu et al. [M. Muramatus, T. Onishi, S. Makino, Y. Hayashi and S. Fujii, J. of Biochem., 58, 214 (1965)]. […] The compound No. corresponds to the compound number shown in Examples.

The test system of the next test is complement. In words: Inhibition of complement mediated hemolysis. Type of test: cell-based. How it is done: The complement mediated hemolysis is widely used as a means to determine the titration of complement. The principle of this method is based on the fact that hemolysis is caused by the activation of complement, when the latter is added to a complex (immune complex) of erythrocytes and the antibody thereof. The degree of hemolysis varies in proportion to the amount of complement added. Therefore, when a known amount of complement admixed with a C1 esterase inhibitor is used, the hemolysis must be suppressed in proportion to the inhibitory activity.
The anti-C1 esterase (C1r, C1s) activity was determined according to the method of Okamura et al. [K. Okamura, M. Muramatsu and B. Fujii, Biochem. Biophys. […] The figures in Table 2 have the following meanings: […]

The test system of the next test is Kallikrein. In words: Anti-kallikrein activity (hydrolysis of TAME). Type of test: biochemical. As to conditions: for IC50: molar concentration inhibiting 50% of TAME hydrolysis, read-out: ID50 kallikrein. How it is done: as §1

Plasmin, sequence (P00747 581-810 limits assumed, species assumed): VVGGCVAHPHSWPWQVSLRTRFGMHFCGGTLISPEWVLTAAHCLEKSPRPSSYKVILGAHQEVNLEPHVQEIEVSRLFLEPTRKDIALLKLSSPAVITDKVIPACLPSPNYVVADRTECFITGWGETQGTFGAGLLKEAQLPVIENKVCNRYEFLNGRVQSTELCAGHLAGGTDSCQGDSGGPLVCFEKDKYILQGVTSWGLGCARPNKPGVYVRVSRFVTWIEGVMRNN
Plasmin, sequence (P00747 97-580 partner limits assumed, species assumed): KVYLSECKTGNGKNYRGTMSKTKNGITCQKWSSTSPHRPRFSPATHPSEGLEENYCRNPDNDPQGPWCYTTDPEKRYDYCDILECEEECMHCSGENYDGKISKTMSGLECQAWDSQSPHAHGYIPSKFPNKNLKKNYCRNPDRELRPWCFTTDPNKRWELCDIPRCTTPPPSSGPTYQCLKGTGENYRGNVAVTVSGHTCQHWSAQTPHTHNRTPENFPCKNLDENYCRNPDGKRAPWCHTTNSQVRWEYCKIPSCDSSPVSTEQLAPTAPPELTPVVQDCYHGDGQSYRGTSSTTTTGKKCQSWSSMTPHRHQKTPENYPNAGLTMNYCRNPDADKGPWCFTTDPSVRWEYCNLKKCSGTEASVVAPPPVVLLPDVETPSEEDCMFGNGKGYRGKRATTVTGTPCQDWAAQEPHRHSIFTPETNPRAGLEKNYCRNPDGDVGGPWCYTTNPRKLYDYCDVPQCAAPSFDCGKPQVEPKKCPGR

`CN=C(NC)NCc1ccc(C(=O)Oc2ccc3cc(C(=N)N)ccc3c2)o1` [Compound No. 2, 6-amidino-2-naphthyl 5-(2,3-dimethyl)guanidinomethyl-furan-2-carboxylate]: the IC50 turned out to be 1000 nM at C1r; 1000 nM on C1s; 2000 nM at Trypsin; 900 nM on Thrombin; 800 nM at Plasmin. The results for the “Inhibition of complement mediated hemolysis (%)” value (“Inhibition … (%)” below) with complement (1 × 10^-5), in the test on complement (1 × 10^-6) and with complement (1 × 10^-7) were 100%, 100% and 91%, respectively.

As for `N=C(N)Nc1ccc(C(=O)Oc2ccc3cc(C(=N)N)ccc3c2)o1` [Compound No. 3], the IC50 at C1r is 700 nM; at C1s it was 300 nM; in the test with Kallikrein it was 900 nM; on Trypsin, 100 nM; at Thrombin, 300 nM; on Plasmin it was 500 nM. Further, the “Inhibition … (%)” value in the test on complement (1 × 10^-5) stood at 100%; in the test on complement (1 × 10^-6) it was 100%; in the test on complement (1 × 10^-7), 99%.

A word on the inhibition: it is how much of the control response was suppressed. In the case of `CN(C(=N)N)c1ccc(C(=O)Oc2ccc3cc(C(=N)N)ccc3c2)o1` [compound 4], the IC50 on C1r was 2000 nM; on C1s, 300 nM; in the test on Kallikrein, 6000 nM; on Trypsin, 4000 nM; at Thrombin it was 8000 nM. Moreover, the inhibition at 10 µM at Plasmin (figure in parentheses, at 1×10^-5 M, TAME, read-out: percentage inhibition of plasmin) was 42%. Also, the “Inhibition … (%)” value in the test with complement (1 × 10^-5) is reported as 100%; in the test with complement (1 × 10^-6) it was 100%; in the test with complement (1 × 10^-7), 59%.

Turning to `CNC(=N)Nc1ccc(C(=O)Oc2ccc3cc(C(=N)N)ccc3c2)o1` [compound 5], the IC50 on C1r was 1000 nM; on C1s it was 300 nM; in the test on Kallikrein, 500 nM; on Trypsin, 300 nM; on Thrombin, 200 nM; on Plasmin, 500 nM. Besides, the entries for the “Inhibition … (%)” value with complement (1 × 10^-5), in the test on complement (1 × 10^-6) and in the test with complement (1 × 10^-7) were 100%, 100% and 96%, respectively.

Consider `CNC(=N)NCc1ccc(C(=O)Oc2ccc3cc(C(=N)N)ccc3c2)o1` [compound 6], for which the IC50 at C1r stood at 500 nM; on C1s it was 1000 nM; in the test on Kallikrein, 400 nM; on Trypsin, 4000 nM; on Thrombin, 2000 nM; on Plasmin, 3000 nM. Moreover, the “Inhibition … (%)” value with complement (1 × 10^-5), in the test on complement (1 × 10^-6) and in the test on complement (1 × 10^-7) was 100% throughout.

Consider `CCNC(=NC)NCc1ccc(C(=O)Oc2ccc3cc(C(=N)N)ccc3c2)o1` [compound 7], for which the IC50 on C1r turned out to be 1000 nM; at C1s, 2000 nM; in the test on Kallikrein, 400 nM; on Trypsin, 2000 nM; at Thrombin, 2000 nM; at Plasmin, 700 nM. The “Inhibition … (%)” value with complement (1 × 10^-5) is given as 100%; in the test on complement (1 × 10^-6), 100%; with complement (1 × 10^-7), 98%.

In the case of `CCN=C(NCC)NCc1ccc(C(=O)Oc2ccc3cc(C(=N)N)ccc3c2)o1` [compound 8], the IC50 was determined as 800 nM at C1r; 2000 nM at C1s; 400 nM with Kallikrein; 2000 nM on Trypsin; 1000 nM at Thrombin; 800 nM at Plasmin. Further, the “Inhibition … (%)” value with complement (1 × 10^-5) was determined as 100%; in the test on complement (1 × 10^-6), 100%; in the test with complement (1 × 10^-7), 98%.

In the case of `N=C(N)NCCc1ccc(C(=O)Oc2ccc3cc(C(=N)N)ccc3c2)o1` [compound 9], the IC50 worked out at 400 nM at C1r; 3000 nM at C1s; 900 nM at Trypsin; 1000 nM on Thrombin; 6000 nM at Plasmin. The “percentage inhibition of kallikrein” value with Kallikrein (figure in parentheses, at 1×10^-5 M, TAME) is 47%. Further, the figures for the “Inhibition … (%)” value with complement (1 × 10^-5), in the test with complement (1 × 10^-6) and with complement (1 × 10^-7) were 100%, 100% and 94%, respectively.

`N=C(N)c1ccc2cc(OC(=O)c3ccc(NC4=NCCN4)o3)ccc2c1` [compound 10]: the IC50 on C1r was found to be 5000 nM; on C1s, 300 nM; in the test with Kallikrein, 400 nM; on Trypsin, 40 nM; on Thrombin, 200 nM; on Plasmin, 3000 nM. Moreover, the “Inhibition … (%)” value stood at 100% in the test with complement (1 × 10^-5), 100% in the test on complement (1 × 10^-6) and 91% with complement (1 × 10^-7).

On to `N=C(N)c1ccc2cc(OC(=O)c3ccc(CNC(=O)CCNC(=O)OCc4ccccc4)o3)ccc2c1` [compound 20], for which the figures for the “Inhibition … (%)” value in the test with complement (1 × 10^-5), in the test with complement (1 × 10^-6) and with complement (1 × 10^-7) were 100%, 98% and 43%, respectively.

For `N=C(N)c1ccc2cc(OC(=O)c3ccc(CNC(=O)CCN)o3)ccc2c1` [compound 34], the IC50 on C1r was 500 nM; on C1s it was 500 nM; with Kallikrein, 300 nM; on Thrombin, 500 nM; on Plasmin, 2000 nM. Moreover, the “Inhibition … (%)” value in the test on complement (1 × 10^-5) is 100%; in the test on complement (1 × 10^-6), 100%; in the test with complement (1 × 10^-7) it was 58%.
